Read-outs that look alike come from different tables or passages of the source. Peptide text beside a SMILES is read from it. * marks the point of attachment. X1 = CC1(C)S[C@@H]2[C@H](NC(=O)C*)C(=O)N2[C@H]1C(=O)O
Key:
[1] = biological target: penicillin-binding protein 2a (PBP2a), truncated, recombinant from E. coli (Staphylococcus aureus (methicillin-resistant, MRSA)) (UniProt P07944); assay: relative IC50: competition with biotinylated ampicillin for PBP2a
PBP2a = biological target: T1, PBP2a (Staphylococcus aureus, UniProt P07944); assay: biochemical; format: biochemical
T1 construct: The truncated PBP2a gene (Roychoudhury et al., J. Biol. Chem. 269:112067-12073, 1994) (cleaved yes); made in house; host or cells: E. coli BL21(DE3)

[2] = biological target: penicillin-binding protein 2a (PBP2a), truncated, recombinant from E. coli (Staphylococcus aureus (methicillin-resistant, MRSA)) (UniProt P07944); assay: relative IC50: competition with biotinylated ampicillin for PBP2a, SDS-PAGE and streptavidin-HRP blot

LRNSNC(pen)IRHFF (residues 2-12 of SEQ ID NO: 5), synthetic peptide penicillanate conjugate
fold improvement compared to 6-aminopenicillanic acid [1]: 100 fold

CO/N=C(\C(=O)N[C@@H]1C(=O)N2C(C(=O)O)=C(COC(C)=O)CS[C@H]12)c1csc(N)n1 [cefotaxime, reference compound]
IC50 (PBP2a): 2.9 mM

LRNSNC(COOH)IRHFF (residues 2-12 of SEQ ID NO: 5), peptide derivatized with bromoacetic acid
IC50 [2]: > 35 mM

CC[C@H](C)[C@H](NC(=O)[C@H](CSCC(=O)N[C@@H]1C(=O)N2[C@@H]1SC(C)(C)[C@@H]2C(=O)O)NC(=O)[C@H](CC(N)=O)NC(=O)[C@H](CO)NC(=O)[C@H](CC(N)=O)NC(=O)[C@H](CCCNC(=N)N)NC(=O)[C@@H](N)CC(C)C)C(=O)N[C@@H](CCCNC(=N)N)C(=O)N[C@@H](Cc1c[nH]cn1)C(=O)N[C@@H](Cc1ccccc1)C(=O)N[C@@H](Cc1ccccc1)C(=O)O [LRNSNC(pen)IRHFF] (H-LRNSNC(X1)IRHFF-OH)
IC50 (PBP2a; 2 μg pure PBP2a, conjugate 15 min at 37° C., then 20 μg biotinylated ampicillin 10 min, read-out: relative IC50): ~7 mM | improvement of PBP2a inhibition over the parent penam (PBP2a; as compared): about 100 fold

From patent US20030235852A1, “Nucleic acid-peptide display libraries containing peptides with unnatural amino acid residues, and methods of making same using peptide modifying agents” (priority 2002, published 2003)
